Literature values, collected in patent EP1587517B1, “ANTI-PROTOZOAL COMPOSITIONS COMPRISING DICLAZURIL” (JANSSEN PHARMACEUTICA N.V., priority 2003, dated 2004).
Converted amounts (≈) assume the structure as drawn. Read-outs that look alike come from different tables or passages of the source.

- solubility (N,N-dimethylformamide): 32.6 mg/mL (≈ 80 mM)
- solubility (dimethyl sulphoxide): 48 mg/mL (≈ 118 mM)
- solubility (tetrahydrofuran): 8.2 mg/mL (≈ 20.1 mM)
- saturation concentrations in water (water): below 1 µg/L
SMILES: N#CC(c1ccc(Cl)cc1)c1c(Cl)cc(-n2ncc(=O)[nH]c2=O)cc1Cl (stereo not shown) [diclazuril]
